Test results: ChEMBL document CHEMBL2440076, “New triarylpyrazoles as broad-spectrum anticancer agents: design, synthesis, and biological evaluation” (Eur J Med Chem, 2013)

Legend:
Format in all cases: functional
HT-29 = test: Growth inhibition of human HT-29 cells assessed as cell growth at 3X10'-5 M after 48 hrs by sulforhodamine B assay; details: HT-29, 48 h, read-out: Activity
NCI-H460 = test: Growth inhibition of human NCI-H460 cells assessed as cell growth at 3X10'-6 M after 48 hrs by sulforhodamine B assay; details: NCI-H460, 48 h, read-out: Activity
IGROV-1 = test: Growth inhibition of human IGROV1 cells assessed as cell growth at 3X10'-6 M after 48 hrs by sulforhodamine B assay; details: IGROV-1, 48 h, read-out: Activity
LOX IMVI [1] = test: Growth inhibition of human LOXIMVI cells assessed as cell growth at 3X10'-7 M after 48 hrs by sulforhodamine B assay; details: read-out: Activity
SK-OV-3 [2] = test: Growth inhibition of human SKOV3 cells assessed as cell growth at 3X10'-9 M after 48 hrs by sulforhodamine B assay; details: SK-OV-3, 48 h, read-out: Activity
LOX IMVI [3] = test: Growth inhibition of human LOXIMVI cells assessed as cell growth at 3X10'-6 M after 48 hrs by sulforhodamine B assay; details: read-out: Activity
HL-60(TB) = test: Growth inhibition of human HL-60(TB) cells assessed as cell growth at 3X10'-9 M after 48 hrs by sulforhodamine B assay; details: HL-60, 48 h, read-out: Activity
COLO 205 = test: Growth inhibition of human COLO205 cells assessed as cell growth at 3X10'-5 M after 48 hrs by sulforhodamine B assay; details: COLO 205, 48 h, read-out: Activity
TK-10 [4] = test: Growth inhibition of human TK10 cells assessed as cell growth at 3X10'-5 M after 48 hrs by sulforhodamine B assay; details: TK-10, 48 h, read-out: Activity
ACHN = test: Growth inhibition of human ACHN cells assessed as cell growth at 3X10'-5 M after 48 hrs by sulforhodamine B assay; details: read-out: Activity
786-0 = test: Growth inhibition of human 786-0 cells assessed as cell growth at 3X10'-9 M after 48 hrs by sulforhodamine B assay; details: 786-0, 48 h, read-out: Activity
TK-10 [5] = test: Growth inhibition of human TK10 cells assessed as cell growth at 3X10'-6 M after 48 hrs by sulforhodamine B assay; details: TK-10, 48 h, read-out: Activity
Malme-3M = test: Growth inhibition of human MALME-3M cells assessed as cell growth at 3X10'-7 M after 48 hrs by sulforhodamine B assay; details: read-out: Activity
SR = test: Growth inhibition of human SR cells assessed as cell growth at 3X10'-9 M after 48 hrs by sulforhodamine B assay; details: read-out: Activity
SK-MEL-28 = test: Growth inhibition of human SK-MEL-28 cells assessed as cell growth at 3X10'-6 M after 48 hrs by sulforhodamine B assay; details: SK-MEL-28, 48 h, read-out: Activity
A549 = test: Growth inhibition of human A549/ATCC cells assessed as cell growth at 3X10'-7 M after 48 hrs by sulforhodamine B assay; details: A549, 48 h, read-out: Activity
NCI-H226 = test: Growth inhibition of human NCI-H226 cells assessed as cell growth at 3X10'-8 M after 48 hrs by sulforhodamine B assay; details: NCI-H226, 48 h, read-out: Activity
A498 = test: Growth inhibition of human A498 cells assessed as cell growth at 3X10'-6 M after 48 hrs by sulforhodamine B assay; details: A498, 48 h, read-out: Activity
SN12C = test: Growth inhibition of human SN12C cells assessed as cell growth at 3X10'-8 M after 48 hrs by sulforhodamine B assay; details: read-out: Activity
UO-31 = test: Growth inhibition of human UO31 cells assessed as cell growth at 3X10'-6 M after 48 hrs by sulforhodamine B assay; details: UO-31, 48 h, read-out: Activity
DU-145 = test: Growth inhibition of human DU145 cells assessed as cell growth at 3X10'-5 M after 48 hrs by sulforhodamine B assay; details: DU-145, 48 h, read-out: Activity
SK-OV-3 [6] = test: Growth inhibition of human SKOV3 cells assessed as cell growth at 3X10'-6 M after 48 hrs by sulforhodamine B assay; details: SK-OV-3, 48 h, read-out: Activity
SNB-75 = test: Growth inhibition of human SNB75 cells assessed as cell growth at 3X10'-6 M after 48 hrs by sulforhodamine B assay; details: SNB-75, 48 h, read-out: Activity
NCI-H522 = test: Growth inhibition of human NCI-H522 cells assessed as cell growth at 3X10'-5 M after 48 hrs by sulforhodamine B assay; details: NCI-H522, 48 h, read-out: Activity
LOX IMVI [7] = test: Growth inhibition of human LOXIMVI cells assessed as cell growth at 3X10'-5 M after 48 hrs by sulforhodamine B assay; details: read-out: Activity
MCF7 = test: Growth inhibition of human MCF7 cells assessed as cell growth at 3X10'-9 M after 48 hrs by sulforhodamine B assay; details: MCF7, 48 h, read-out: Activity
KM12 = test: Growth inhibition of human KM12 cells assessed as cell growth at 3X10'-7 M after 48 hrs by sulforhodamine B assay; details: KM12, 48 h, read-out: Activity
OVCAR-3 = test: Growth inhibition of human OVCAR3 cells assessed as cell growth at 3X10'-9 M after 48 hrs by sulforhodamine B assay; details: OVCAR-3, 48 h, read-out: Activity

Compound: O=C(Nc1cccc(-n2cc(-c3ccncc3)c(-c3ccc(Cl)c(O)c3)n2)c1)Nc1cccc(C(F)(F)F)c1
- growth at 30 µM (HT-29): 1%
- growth at 3 µM (NCI-H460): 16%
- growth at 3 µM (IGROV-1): 29%
- growth at 0.3 µM (LOX IMVI [1]): 97%
- growth at 0.003 µM (SK-OV-3 [2]): 98%
- growth at 3 µM (LOX IMVI [3]): 44%
- growth at 0.003 µM (HL-60(TB)): 99%
- growth at 30 µM (COLO 205): -14%
- growth at 30 µM (TK-10 [4]): 7%
- growth at 30 µM (ACHN): 7%
- growth at 0.003 µM (786-0): 98%
- growth at 3 µM (TK-10 [5]): 37%
- growth at 0.3 µM (Malme-3M): 87%
- growth at 0.003 µM (SR): 94%
- growth at 3 µM (SK-MEL-28): 55%
- growth at 0.3 µM (A549): 93%
- growth at 0.03 µM (NCI-H226): 100%
- growth at 3 µM (A498): 44%
- growth at 0.03 µM (SN12C): 98%
- growth at 3 µM (UO-31): 37%
- growth at 30 µM (DU-145): 9%
- growth at 3 µM (SK-OV-3 [6]): 58%
- growth at 3 µM (SNB-75): 53%
- growth at 30 µM (NCI-H522): -13%
- growth at 30 µM (LOX IMVI [7]): -50%
- growth at 0.003 µM (MCF7): 91%
- growth at 0.3 µM (KM12): 97%
- growth at 0.003 µM (OVCAR-3): 96%
